Read-outs that look alike come from different tables or passages of the source.

In the test the target is T1, isomerase (Mus musculus, UniProt Q91ZQ5).
T1 construct: The recovery of 11-cis-retinal after bleaching can be used to estimate the activity of isomerase in vivo; from tissue; host or cells: eyes of living CD-1 and Balb/c male mice
T1 sequence (Q91ZQ5 1-533): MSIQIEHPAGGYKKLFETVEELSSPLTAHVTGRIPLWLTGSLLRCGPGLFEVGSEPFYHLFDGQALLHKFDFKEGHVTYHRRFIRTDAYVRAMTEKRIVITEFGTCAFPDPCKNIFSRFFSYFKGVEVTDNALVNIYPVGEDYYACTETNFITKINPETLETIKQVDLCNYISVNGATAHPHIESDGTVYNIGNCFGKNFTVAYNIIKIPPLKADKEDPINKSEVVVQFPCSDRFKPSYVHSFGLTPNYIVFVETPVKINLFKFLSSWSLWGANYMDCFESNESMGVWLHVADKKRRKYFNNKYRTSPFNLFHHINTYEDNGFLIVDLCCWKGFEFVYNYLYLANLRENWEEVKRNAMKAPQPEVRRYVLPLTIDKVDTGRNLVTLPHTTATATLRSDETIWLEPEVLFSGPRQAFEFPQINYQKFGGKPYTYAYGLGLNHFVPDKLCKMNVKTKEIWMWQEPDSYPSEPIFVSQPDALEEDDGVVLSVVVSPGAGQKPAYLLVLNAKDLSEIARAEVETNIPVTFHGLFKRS
Kind of test: In vivo murine isomerase assay (recovery of 11-cis-retinal after photobleaching). Details: species or system mice. The following applies: for inhibition in vivo at 1 mg/kg / ED50 / inhibition in vivo at 5 mg/kg: mouse; for inhibition in vivo at 1 mg/kg / inhibition in vivo at 5 mg/kg: read-out: % Inibition; for ED50: po, read-out: ED50 (dose of compound that gives 50% inhibition of 11-cis retinal (oxime) recovery), estimated, male Balb/c mice, HCl salts dosed orally in mg/kg; for ED50 / inhibition of isomerase activity in vivo (figure legend): photobleached 4 hours after dosing; for inhibition of isomerase activity in vivo (figure legend): oral dose response, Balb/c mice. As for the experimental part: The capability of alkynyl phenyl-linked amine derivatives to inhibit isomerase is determined by an in vivo murine isomerase assay. Brief exposure of the eye to intense light (“photobleaching” of the visual pigment or simply “bleaching”) is known to photo-isomerize almost all 11-cis-retinal in the retina. The recovery of 11-cis-retinal after bleaching can be used to estimate the activity of isomerase in vivo. Delayed recovery, as represented by lower 11-cis-retinal oxime levels, indicates inhibition of isomerization reaction. Procedures were performed essentially as described by Golczak et al., Proc. Natl. Acad. Sci. […] See also Deigner et al., Science, 244: 968-71 (1989); […] Parish, et al., Proc. Natl. Acad. Sci. USA, 14609-13 (1998); […] Six-week old dark-adapted CD-1 (albino) male mice were orally gavaged with compound (0.03-3 mg/kg) dissolved in 100 μl corn oil containing 10% ethanol (five animals per group). […] After 2-24 hours in the dark, the mice were exposed to photobleaching of 5,000 lux of white light for 10 minutes. The mice were allowed to recover 2 hours in the dark. The animals were then sacrificed by carbon dioxide inhalation. Retinoids were extracted from the eye and the regeneration of 11-cis-retinal was assessed at various time intervals. All steps were performed in darkness with minimal redlight illumination (low light darkroom lights and […] flashlights for spot illumination as needed) (see, e.g., Maeda et al., J. Neurochem 85:944-956, 2003; Van Hooser et al., J Biol Chem 277:19173-82, 2002). After the mice were sacrificed, the eyes were immediately removed and placed in liquid nitrogen for storage. The eyes were placed in 500 μL of bis-tris propane buffer (10 mM, pH 7.3) and 20 μL of 0.8M hydroxile amine (pH-7.3). The eyes were cut up into small pieces with small iris scissors and then thoroughly homogenized at 30000 rpm with a mechanical homogenizer (Polytron PT 1300 D) in the tube until no visible tissue remained. 500 μL of methanol and 500 μL of heptane were added to each tube. The tubes were attached to a vortexer so that the contents were mixed thoroughly for 15 minutes in room temperature. […] The samples were analyzed on an Agilent 1100 HPLC system with normal phase column: SILICA (Beckman Coutlier, dp 5 μm, […]). The running method has a flow rate of 1.5 ml/min; solvent components are 15% solvent 1 (1% isopropanol in ethyl acetate), and 85% solvent 2 (100% hexanes). Loading volume for each sample is 100 μl; detection wavelength is 360 nm. The area under the curve for 11-cis retinal oxime was calculated by Agilent Chemstation software and was recorded manually. Data processing was performed using Prizm software. Positive control mice (no compound administered) were sacrificed fully dark-adapted and the eye retinoids analyzed. Light (bleached) control mice (no compound administered) were sacrificed and retinoids isolated and analyzed immediately after light treatment. […] Animals that received Compound 19 HCl were orally dosed with 0.01 and 1 mg/kg of compound in sterile water as solution, and photobleached 4 hours after dosing. Recovery and retinoid analysis were performed as described above. Dark control mice were vehicle-only treated, sacrificed fully dark adapted without light treatment, and analyzed. […] A time course study was performed to determine the isomerase inhibitory activity of Compounds 2, 18 and 19. Male Balb/c mice (4/group) received 3 mg Compound 2-HCl, Compound 18-HCl or Compound 19-HCl (in water) per kg bodyweight orally, by gavage. The animals were then “photo-bleached” (5000 Lux white light for 10 minutes) at 2, 4, 8, 16 and 24 hours after dosing, and returned to darkness to allow recovery of the 11-cis-retinal content of the eyes. Mice were sacrificed 2 hours after bleaching, eyes were enucleated, and retinoid content was analyzed by HPLC. A single dose study of the compound of Example 36 (Compound 36) was performed, at 1 mg/kg and 5 mg/kg oral dosing, 2, 4, 6, and 24 hours post bleaching. […]

Turning to `NCCOc1cccc(C#CCCCCO)c1` [Example 74, 6-(3-(2-Aminoethoxy)phenyl)hex-5-yn-1-ol], the inhibition in vivo at 1 mg/kg is, setting by setting: (4 h) 8%; (24 h) 0%.

For the compound `CC(=O)NCCCc1cccc(C#CC2(O)CCCCC2)c1` [Example 60, N-(3-(3-((1-Hydroxycyclohexyl)Ethynyl)Phenyl)Propyl)Acetamide], the inhibition in vivo at 1 mg/kg (4 h) stood at 10% and the inhibition in vivo at 1 mg/kg (24 h) turned out to be 9%.

For orientation: ED50 means the midpoint of the dose-response relation. In the case of `CCCC(O)(C#Cc1cccc([C@@H](O)CCN)c1)CCC` [Compound 101, (S)-4-((3-(3-Amino-1-Hydroxypropyl)Phenyl)Ethynyl)Heptan-4-ol], the median effective dose (ED50) is 0.38 mg/kg and the “inhibition of isomerase activity in vivo (figure legend)” value (“inhibition of isomerase activity” below) is on record as “concentration-dependent inhibition”.

Turning to `CCCC(O)(C#Cc1cccc(OCCN)c1)CCC` [Example 18, 4-((3-(2-Aminoethoxy)phenyl)ethynyl)heptan-4-ol], the ED50 is 1.73 mg/kg and the “inhibition of isomerase activity” value is “concentration-dependent inhibition”.

As to `CC(C)C(O)(C#Cc1cccc(CCCN)c1)C(C)C` [Example 32, 1-(3-(3-Aminopropyl)phenyl)-3-isopropyl-4-methylpent-1-yn-3-ol], the inhibition in vivo at 1 mg/kg stood at 75% (4 h) and 14% (24 h).

As to `NCCC(O)c1cccc(C#CCCc2ccccc2)c1` (stereo not shown) [Example 69, 3-Amino-1-(3-(4-phenylbut-1-ynyl)phenyl)propan-1-ol], the inhibition in vivo at 1 mg/kg by setting is: (4 h) 81%; (24 h) 10%.

For `CCCC(O)(C#Cc1cccc(C(O)CCN)c1)CCC` (stereo not shown) [Example 19, 4-((3-(3-Amino-1-hydroxypropyl)phenyl)ethynyl)heptan-4-ol], the ED50 was 0.33 mg/kg and the “inhibition of isomerase activity” value is listed as “concentration-dependent inhibition”.

For the compound `COc1ccccc1C#Cc1cccc(C(O)CCN)c1` (stereo not shown) [Example 54, 3-Amino-1-(3-((2-Methoxyphenyl)Ethynyl)Phenyl)Propan-1-ol], the inhibition in vivo at 1 mg/kg is 67% (4 h) and 58% (24 h).

On to `NCCOc1cccc(C#Cc2ccccc2)c1` [Example 81, 2-(3-(Phenylethynyl)phenoxy)-ethanamine], for which the inhibition in vivo at 1 mg/kg runs as follows: (4 h) 8%; (24 h) 3%.

On to `NCCOc1cccc(C#CC2CCCCC2)c1` [Example 80, 2-(3-(Cyclohexylethynyl)phenoxy)ethanamine], for which the inhibition in vivo at 1 mg/kg (4 h) was found to be 22% and the inhibition in vivo at 1 mg/kg (24 h) worked out at 0%.

Take `CCC(O)(C#Cc1cccc(OCCN)c1)CC` [Example 27, 1-(3-(2-Aminoethoxy)phenyl)-3-ethylpent-1-yn-3-ol]: for the setting “4 h”, the inhibition in vivo at 1 mg/kg came out at 7% and the inhibition in vivo at 5 mg/kg was determined as 65%. In addition, under “24 h”, the inhibition in vivo at 1 mg/kg came out at 6% and the inhibition in vivo at 5 mg/kg was determined as 0%.

In the case of `NCCCc1cccc(C#Cc2ccccc2)c1` [Example 37, 3-(3-(Phenylethynyl)phenyl)propan-1-amine], the inhibition in vivo at 1 mg/kg came to 23% (4 h) and 9% (24 h). Besides, the inhibition in vivo at 5 mg/kg by setting is: (4 h) 73%; (24 h) 0%.

In the case of `NCCC(O)c1cccc(C#CC2CCCC2)c1` (stereo not shown) [Example 47, 3-Amino-1-(3-(cyclopentylethynyl)phenyl)propan-1-ol], the inhibition in vivo at 1 mg/kg came to 100% (4 h) and 2% (24 h).

On to `NCCC(O)c1cccc(C#CCCCCO)c1` (stereo not shown) [Example 50, 6-(3-(3-Amino-1-hydroxypropyl)phenyl)hex-5-yn-1-ol], for which the inhibition in vivo at 1 mg/kg runs as follows: (4 h) 13%; (24 h) 31%.

As to `NCCCc1cccc(C#CC2CCCC2)c1` [Example 38, 3-(3-(Cyclopentylethynyl)phenyl)propan-1-amine], under “4 h”, the inhibition in vivo at 1 mg/kg is 0% and the inhibition in vivo at 5 mg/kg was found to be 8%. Moreover, where the note is “24 h”, the inhibition in vivo at 1 mg/kg worked out at 0% and the inhibition in vivo at 5 mg/kg stood at 1%.

Turning to `CC(C)(O)C#Cc1cccc(CCCN)c1` [Example 7, 4-(3-(3-Aminopropyl)phenyl)-2-methylbut-3-yn-2-ol], the inhibition in vivo at 5 mg/kg was determined as 49% (4 h) and 0% (24 h).

On to `NCCC(O)c1cccc(C#CC2(O)CCCCC2)c1` (stereo not shown) [Example 99, 1-((3-(3-Amino-1-hydroxypropyl)phenyl)ethynyl)cyclohexanol], for which the inhibition in vivo at 1 mg/kg was found to be 31% (4 h) and 0% (24 h).
